{
  "source": "PubChem BioAssay (NCI)",
  "test_in_all_cases": "inhibition of tumour cell growth, NCI panel, 384-well format",
  "key": {"UACC-257 melanoma": {"tested_on": "UACC-257 melanoma"}, "SN12C renal": {"tested_on": "SN12C renal"}, "SK-MEL-28 melanoma": {"tested_on": "SK-MEL-28 melanoma"}, "KM12 colon": {"tested_on": "KM12 colon"}, "HT29 colon": {"tested_on": "HT29 colon"}, "NCI/ADR-RES ovarian": {"tested_on": "NCI/ADR-RES ovarian"}, "MDA-MB-468 breast": {"tested_on": "MDA-MB-468 breast"}, "BT-549 breast": {"tested_on": "BT-549 breast"}, "SW-620 colon": {"tested_on": "SW-620 colon"}, "IGROV1 ovarian": {"tested_on": "IGROV1 ovarian"}, "HCT-116 colon": {"tested_on": "HCT-116 colon"}, "CAKI-1 renal": {"tested_on": "CAKI-1 renal"}, "K-562 leukemia": {"tested_on": "K-562 leukemia"}},
  "note": "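GI50 marks 50% less growth. At the TGI there is no net growth.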",
  "data": [
    {"smiles": "C[C@@H](c1ccc2nccn2c1)n1nnc2ncc(-c3cnn(C)c3)nc21", "values": [
      {"measurement": "GI50", "setting": "UACC-257 melanoma", "result": "> 100", "unit": "µM"},
      {"measurement": "TGI", "setting": "UACC-257 melanoma", "result": "> 100", "unit": "µM"},
      {"measurement": "GI50", "setting": "SN12C renal", "result": "> 63", "unit": "µM"},
      {"measurement": "TGI", "setting": "SN12C renal", "result": "> 100", "unit": "µM"},
      {"measurement": "GI50", "setting": "SK-MEL-28 melanoma", "result": "> 100", "unit": "µM"},
      {"measurement": "TGI", "setting": "SK-MEL-28 melanoma", "result": "> 100", "unit": "µM"},
      {"measurement": "GI50", "setting": "KM12 colon", "result": 35, "unit": "µM"},
      {"measurement": "TGI", "setting": "KM12 colon", "result": "> 100", "unit": "µM"},
      {"measurement": "GI50", "setting": "HT29 colon", "result": "> 100", "unit": "µM"},
      {"measurement": "TGI", "setting": "HT29 colon", "result": "> 100", "unit": "µM"},
      {"measurement": "GI50", "setting": "NCI/ADR-RES ovarian", "result": "> 100", "unit": "µM"},
      {"measurement": "TGI", "setting": "NCI/ADR-RES ovarian", "result": "> 100", "unit": "µM"},
      {"measurement": "GI50", "setting": "MDA-MB-468 breast", "result": 22, "unit": "µM"},
      {"measurement": "TGI", "setting": "MDA-MB-468 breast", "result": "> 100", "unit": "µM"},
      {"measurement": "GI50", "setting": "BT-549 breast", "result": "> 100", "unit": "µM"},
      {"measurement": "TGI", "setting": "BT-549 breast", "result": "> 100", "unit": "µM"},
      {"measurement": "GI50", "setting": "SW-620 colon", "result": "> 100", "unit": "µM"},
      {"measurement": "TGI", "setting": "SW-620 colon", "result": "> 100", "unit": "µM"},
      {"measurement": "GI50", "setting": "IGROV1 ovarian", "result": "> 100", "unit": "µM"},
      {"measurement": "TGI", "setting": "IGROV1 ovarian", "result": "> 100", "unit": "µM"},
      {"measurement": "GI50", "setting": "HCT-116 colon", "result": "> 100", "unit": "µM"},
      {"measurement": "TGI", "setting": "HCT-116 colon", "result": "> 100", "unit": "µM"},
      {"measurement": "GI50", "setting": "CAKI-1 renal", "result": "> 51.5", "unit": "µM"},
      {"measurement": "TGI", "setting": "CAKI-1 renal", "result": "> 100", "unit": "µM"},
      {"measurement": "GI50", "setting": "K-562 leukemia", "result": 44.8, "unit": "µM"},
      {"measurement": "TGI", "setting": "K-562 leukemia", "result": "> 100", "unit": "µM"}
    ]}
  ]
}
